What was measured:
Assay type in all cases: biochemical
[1] = molecular target: T7 RNA Polymerase (Escherichia phage T7, UniProt P00573); conditions: 20 μL transcription system, Cap1 Analog 4 mM, 37° C. 2 to 3 hours
Method: • 1) A plasmid was linearized and the DNA template was purified. • 2) mRNA was synthesized in vitro with 51 types of capping structures of the present disclosure, or without any cap analogues. CleanCap®AG (3′OMe) (Trilink, N-7413) was applied as positive control group, uncapped mRNA was negative control group, and DNAase/RNase-Free water was a blank control group.
The system was incubated for 2 to 3 hours at 37° C. and digested by TURBO DNase for 15 min LiCl was used to precipitate mRNA for at least 30 min, or overnight, mRNA precipitates were then washed with 75% ethanol. After ethanol was quickly volatilized, mRNA was re-solubilized with RNase-Free water. • 3) The transcribed products were purified and the transcription yields were calculated.

[2] = test system: mRNA; assay: Capping efficiency of mRNA with different cap analogs by LC-MS; conditions: LC-MS after RNase H cleavage
Method: In a PCR machine, the annealing was performed using the following gradients: • 95° C. for 5 min; 65° C. for 2 min; 55° C. for 2 min; 40° C. for 2 min; 22° C. for 2 min • 5) Pre-treatment of magnetic beads were bound with probes.
100 μL of magnetic beads were placed on a magnetic rack and the preservation solution was removed. 100 μL of 1*BW solution was added, mixed well, and placed on the magnetic rack, and the supernatant was then removed. The washing step was repeated three times. 100 μL of wash A buffer was added, mixed well, and placed on the magnetic rack, and the supernatant was then removed. The washing step was repeated three times. 100 μL of wash B buffer was added, mixed well, and placed on the magnetic rack, and the supernatant was then removed. The washing step was repeated three times. After 120 μL of sample was added, the sample and the magnetic beads solution were incubated for 30 min at room temperature, and they were gently mixed well while incubation. • 6) mRNA was spliced to obtain 5′ end mRNA single stranded sequence and binding with the probe.
20 μL of RNase H (5 U/mL) was added, incubated for 3 hours at 37° C., mixed once every half an hour. 100 μL of 1*BW solution was added, mixed well, and placed on the magnetic rack, and then the supernatant was removed. The washing step was repeated three times. Subsequently, 100 μL of deionized aqueous solution was added, mixed well, and placed on the magnetic rack, and the supernatant was then removed. The washing step was repeated three times. 100 μL of 75% methanol at 80° C. was added, and the mixture was incubated at 80° C. on a heater plate for 3 min, and placed on the magnetic rack, and the supernatant was then pipetted. The sample was dried using an evaporative centrifuge at room temperature for 45 min to 10 μL, and then resuspended in 50 μL of 100 μM EDTA solution in 1% MeOH for LC-MS analysis.
The capping efficiencies of mRNA with different cap analogs were determined by LC-MS, and some compounds of the results were shown in Table 4.

[3] = test system: mRNA Decapping Enzyme; assay: Stability of the capped mRNA against the mRNA decapping enzymes
Method: • 1) The capped mRNAs were heated at 65° C. for 10 min and their secondary structures were unfolded. • 2) The concentration of mRNA Deacpping Enzyme was diluted from the original concentration (100 U/uL) to 50 U/uL, 5 U/uL, 0.5 U/uL in a 10-fold gradient dilution ratio. • 3) The capped mRNAs were added to the reaction, and the amount of enzyme in the reaction was 50 U, 5 U, 0.5 U, 0 U, respectively. The mixture was mixed with a pipette, and was incubated at 37° C. for 1 hour.
• 4) The RNA was purified using a LiCl Precipitation method, and then diluted to 500 ng/uL*20 uL for subsequent cell transfection. • 5) The cells were transfected with mRNA, and luciferase expression was detected in the same method as Experiment 2.
In FIG. 1, the luminescence unit of luciferase expressed by mRNA without decapping enzyme treatment (0 U) was 100%, and the percentage of the luminescence unit of luciferase expressed by capped mRNA treated with different concentrations of […] to the luminescence unit of luciferase expressed by capped mRNA without decapping enzyme treatment was calculated.

T7 RNA Polymerase, sequence (P00573 whole entry): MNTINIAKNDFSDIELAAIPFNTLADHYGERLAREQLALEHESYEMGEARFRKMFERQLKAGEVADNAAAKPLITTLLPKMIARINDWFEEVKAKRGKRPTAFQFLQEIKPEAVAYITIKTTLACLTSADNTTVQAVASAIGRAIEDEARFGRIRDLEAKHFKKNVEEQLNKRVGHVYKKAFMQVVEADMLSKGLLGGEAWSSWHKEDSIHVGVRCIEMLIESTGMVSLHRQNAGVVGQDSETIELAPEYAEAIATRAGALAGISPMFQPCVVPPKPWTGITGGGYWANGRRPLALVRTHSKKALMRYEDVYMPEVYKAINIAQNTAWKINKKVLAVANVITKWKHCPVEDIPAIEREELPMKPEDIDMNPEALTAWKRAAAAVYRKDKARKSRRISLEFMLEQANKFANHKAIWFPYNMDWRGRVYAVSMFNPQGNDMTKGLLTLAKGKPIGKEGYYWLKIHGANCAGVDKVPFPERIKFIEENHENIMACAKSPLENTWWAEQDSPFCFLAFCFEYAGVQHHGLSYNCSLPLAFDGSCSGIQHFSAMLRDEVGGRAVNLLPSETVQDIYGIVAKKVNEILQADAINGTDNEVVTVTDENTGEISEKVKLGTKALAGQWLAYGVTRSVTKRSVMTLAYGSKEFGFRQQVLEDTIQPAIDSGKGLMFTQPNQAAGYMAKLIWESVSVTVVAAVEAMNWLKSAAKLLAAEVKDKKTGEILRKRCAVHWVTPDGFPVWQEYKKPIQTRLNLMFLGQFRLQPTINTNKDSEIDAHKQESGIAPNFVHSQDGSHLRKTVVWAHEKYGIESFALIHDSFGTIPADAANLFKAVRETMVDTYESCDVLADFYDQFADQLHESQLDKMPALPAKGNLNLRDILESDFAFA

In the case of `CCOC[C@H]1[C@@H](O)[C@H](n2c[n+](C)c3c(=O)[nH]c(N)nc32)O[C@@H]1COP(=O)(O)OP(=O)(O)OP(=O)(O)OC[C@H]1O[C@@H](n2cnc3c(N)ncnc32)[C@H](OC)[C@@H]1OP(=O)(O)OC[C@H]1O[C@@H](n2cnc3c(=O)[nH]c(N)nc32)[C@H](O)[C@@H]1O` [Compound 139], the “Final product mass obtained from the 20 μL of mRNA transcription system” value (“Final product mass obtained” below) [1] is reported as 116 µg and the Capping efficiency [2] is reported as “A (100% > A ≥ 95%)”.
In the case of `COCCOC[C@H]1[C@@H](O)[C@H](n2c[n+](C)c3c(=O)[nH]c(N)nc32)O[C@@H]1COP(=O)(O)OP(=O)(O)OP(=O)(O)OC[C@H]1O[C@@H](n2cnc3c(N)ncnc32)[C@H](OC)[C@@H]1OP(=O)(O)OC[C@H]1O[C@@H](n2cnc3c(=O)[nH]c(N)nc32)[C@H](O)[C@@H]1O` [Compound 141], the “Final product mass obtained” value [1] is reported as 84 µg and the Capping efficiency [2] is reported as “A (100% > A ≥ 95%)”.
With `COC[C@H]1[C@@H](O)[C@H](n2c[n+](C)c3c(=O)[nH]c(N)nc32)O[C@@H]1COP(=O)(O)OP(=O)(O)CP(=O)(O)OC[C@H]1O[C@@H](n2cnc3c(N)ncnc32)[C@H](OC)[C@@H]1OP(=O)(O)OC[C@H]1O[C@@H](n2cnc3c(=O)[nH]c(N)nc32)[C@H](O)[C@@H]1O` [Compound 173] the “Final product mass obtained” value [1] was 118 µg, the Capping efficiency [2] was “A (100% > A ≥ 95%)” and the “Stability of capped mRNA against decapping enzyme (FIG. 1)” value ([3]; at low concentration of decapping enzyme) was “the same stability as that of N-7413”. For the same molecule, the “Stability of capped mRNA against decapping enzyme (FIG. 1)” value ([3]; when the concentration of decapping enzyme was higher) was “a better stability than that of N-7413”.
`CNC(=O)C[C@H]1[C@@H](O)[C@H](n2c[n+](C)c3c(=O)[nH]c(N)nc32)O[C@@H]1COP(=O)(O)OP(=O)(O)OP(=O)(O)OC[C@H]1O[C@@H](n2cnc3c(N)ncnc32)[C@H](OC)[C@@H]1OP(=O)(O)OC[C@H]1O[C@@H](n2cnc3c(=O)[nH]c(N)nc32)[C@H](O)[C@@H]1O` [Compound 393] was tested, and the “Final product mass obtained” value [1] was 95 µg and the Capping efficiency [2] was “A (100% > A ≥ 95%)”.
For `CO[C@@H]1[C@H](OP(=O)([O-])OC[C@H]2O[C@@H](n3cnc4c(=O)[nH]c(N)nc43)[C@H](O)[C@@H]2O)[C@@H](COP(=O)(O)OP(=O)(O)OP(=O)(O)OC[C@H]2O[C@@H](n3c[n+](C)c4c(=O)[nH]c(N)nc43)[C@H](O)[C@@H]2CCN2CCOCC2)O[C@H]1n1cnc2c(N)ncnc21` [Compound 633], the “Final product mass obtained” value [1] was 100 µg and the Capping efficiency [2] was “B (95% > B ≥ 90%)”.
